From PubChem BioAssay (NCI)
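Grown in 96-well plates, cells were treated for 48 hours with each compound at five concentrations. Insufficient inhibition: endpoint recorded as highest concentration tested. The concentration for full growth arrest is given as TGI.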

Tests used:
Test in all cases: NCI-60 cell line screen, 48 h
786-0 renal = test system: 786-0 renal
A498 renal = test system: A498 renal
A549 NSCLC = test system: A549 NSCLC
ACHN renal = test system: ACHN renal
CAKI-1 renal = test system: CAKI-1 renal
CCRF-CEM leukemia = test system: CCRF-CEM leukemia
COLO 205 colon = test system: COLO 205 colon
DU-145 prostate = test system: DU-145 prostate
EKVX NSCLC = test system: EKVX NSCLC
HCT-116 colon = test system: HCT-116 colon
HL-60(TB) leukemia = test system: HL-60(TB) leukemia
HOP-62 NSCLC = test system: HOP-62 NSCLC
HOP-92 NSCLC = test system: HOP-92 NSCLC
HS 578T breast = test system: HS 578T breast
HT29 colon = test system: HT29 colon
IGROV1 ovarian = test system: IGROV1 ovarian
K-562 leukemia = test system: K-562 leukemia
KM12 colon = test system: KM12 colon
LOX IMVI melanoma = test system: LOX IMVI melanoma
M14 melanoma = test system: M14 melanoma
MALME-3M melanoma = test system: MALME-3M melanoma
MCF7 breast = test system: MCF7 breast
MDA-MB-231 breast = test system: MDA-MB-231 breast
MDA-N = test system: MDA-N
MOLT-4 leukemia = test system: MOLT-4 leukemia
NCI-H226 lung = test system: NCI-H226 lung
NCI-H23 lung = test system: NCI-H23 lung
NCI-H522 lung = test system: NCI-H522 lung
NCI/ADR-RES ovarian = test system: NCI/ADR-RES ovarian
OVCAR-3 ovarian = test system: OVCAR-3 ovarian
OVCAR-5 ovarian = test system: OVCAR-5 ovarian
OVCAR-8 ovarian = test system: OVCAR-8 ovarian
PC-3 prostate = test system: PC-3 prostate
RPMI-8226 leukemia = test system: RPMI-8226 leukemia
RXF 393 renal = test system: RXF 393 renal
SF-268 CNS = test system: SF-268 CNS
SF-295 CNS = test system: SF-295 CNS
SF-539 CNS = test system: SF-539 CNS
SK-MEL-2 melanoma = test system: SK-MEL-2 melanoma
SK-MEL-28 melanoma = test system: SK-MEL-28 melanoma
SK-MEL-5 melanoma = test system: SK-MEL-5 melanoma
SK-OV-3 ovarian = test system: SK-OV-3 ovarian
SN12C renal = test system: SN12C renal
SNB-19 CNS = test system: SNB-19 CNS
SNB-75 CNS = test system: SNB-75 CNS
SW-620 colon = test system: SW-620 colon
T-47D breast = test system: T-47D breast
TK-10 renal = test system: TK-10 renal
U251 CNS = test system: U251 CNS
UACC-257 melanoma = test system: UACC-257 melanoma
UACC-62 melanoma = test system: UACC-62 melanoma
UO-31 renal = test system: UO-31 renal
HCC-2998 colon = test system: HCC-2998 colon
HCT-15 colon = test system: HCT-15 colon
NCI-H460 lung = test system: NCI-H460 lung
SR leukemia = test system: SR leukemia

## N#Cc1nc(C(O)c2ccccc2)oc1N (stereo not given)
786-0 renal
  TGI: > 100 µM
A498 renal
  TGI: > 100 µM
A549 NSCLC
  TGI: > 100 µM
ACHN renal
  TGI: > 100 µM
CAKI-1 renal
  TGI: > 100 µM
CCRF-CEM leukemia
  TGI: > 100 µM
COLO 205 colon
  TGI: > 100 µM
DU-145 prostate
  TGI: > 100 µM
EKVX NSCLC
  TGI: > 100 µM
HCT-116 colon
  TGI: > 100 µM
HL-60(TB) leukemia
  TGI: > 100 µM
HOP-62 NSCLC
  TGI: > 100 µM
HOP-92 NSCLC
  TGI: > 100 µM
HS 578T breast
  TGI: > 100 µM
HT29 colon
  TGI: > 100 µM
IGROV1 ovarian
  TGI: > 100 µM
K-562 leukemia
  TGI: > 100 µM
KM12 colon
  TGI: > 100 µM
LOX IMVI melanoma
  TGI: > 100 µM
M14 melanoma
  TGI: > 100 µM
MALME-3M melanoma
  TGI: > 100 µM
MCF7 breast
  TGI: > 100 µM
MDA-MB-231 breast
  TGI: > 100 µM
MDA-N
  TGI: > 100 µM
MOLT-4 leukemia
  TGI: > 100 µM
NCI-H226 lung
  TGI: > 100 µM
NCI-H23 lung
  TGI: > 100 µM
NCI-H522 lung
  TGI: > 100 µM
NCI/ADR-RES ovarian
  TGI: > 100 µM
OVCAR-3 ovarian
  TGI: > 100 µM
OVCAR-5 ovarian
  TGI: > 100 µM
OVCAR-8 ovarian
  TGI: > 100 µM
PC-3 prostate
  TGI: > 100 µM
RPMI-8226 leukemia
  TGI: > 100 µM
RXF 393 renal
  TGI: > 100 µM
SF-268 CNS
  TGI: > 100 µM
SF-295 CNS
  TGI: > 100 µM
SF-539 CNS
  TGI: > 100 µM
SK-MEL-2 melanoma
  TGI: > 100 µM
SK-MEL-28 melanoma
  TGI: > 100 µM
SK-MEL-5 melanoma
  TGI: > 100 µM
SK-OV-3 ovarian
  TGI: > 100 µM
SN12C renal
  TGI: > 100 µM
SNB-19 CNS
  TGI: > 100 µM
SNB-75 CNS
  TGI: > 100 µM
SW-620 colon
  TGI: > 100 µM
T-47D breast
  TGI: > 100 µM
TK-10 renal
  TGI: > 100 µM
U251 CNS
  TGI: > 100 µM
UACC-257 melanoma
  TGI: > 100 µM
UACC-62 melanoma
  TGI: > 100 µM
UO-31 renal
  TGI: > 100 µM

## C/C(=N\NC(=O)c1ccncc1)c1cccc(F)c1
786-0 renal
  TGI: > 10 µM
A498 renal
  TGI: > 10 µM
A549 NSCLC
  TGI: > 10 µM
ACHN renal
  TGI: > 10 µM
CAKI-1 renal
  TGI: > 10 µM
CCRF-CEM leukemia
  TGI: > 10 µM
COLO 205 colon
  TGI: > 10 µM
HCC-2998 colon
  TGI: > 10 µM
HCT-116 colon
  TGI: > 10 µM
HCT-15 colon
  TGI: > 10 µM
HL-60(TB) leukemia
  TGI: > 10 µM
HOP-62 NSCLC
  TGI: > 10 µM
HOP-92 NSCLC
  TGI: > 10 µM
IGROV1 ovarian
  TGI: > 10 µM
K-562 leukemia
  TGI: > 10 µM
KM12 colon
  TGI: > 10 µM
LOX IMVI melanoma
  TGI: > 10 µM
M14 melanoma
  TGI: > 10 µM
MALME-3M melanoma
  TGI: > 10 µM
MCF7 breast
  TGI: > 10 µM
MDA-N
  TGI: > 10 µM
MOLT-4 leukemia
  TGI: > 10 µM
NCI-H226 lung
  TGI: > 10 µM
NCI-H23 lung
  TGI: > 10 µM
NCI-H460 lung
  TGI: > 10 µM
NCI/ADR-RES ovarian
  TGI: > 10 µM
OVCAR-3 ovarian
  TGI: > 10 µM
OVCAR-5 ovarian
  TGI: > 10 µM
OVCAR-8 ovarian
  TGI: > 10 µM
PC-3 prostate
  TGI: > 10 µM
RPMI-8226 leukemia
  TGI: > 10 µM
RXF 393 renal
  TGI: > 10 µM
SF-268 CNS
  TGI: > 10 µM
SF-295 CNS
  TGI: > 10 µM
SF-539 CNS
  TGI: > 10 µM
SK-MEL-2 melanoma
  TGI: > 10 µM
SK-MEL-28 melanoma
  TGI: > 10 µM
SK-MEL-5 melanoma
  TGI: > 10 µM
SK-OV-3 ovarian
  TGI: > 10 µM
SN12C renal
  TGI: > 10 µM
SNB-19 CNS
  TGI: > 10 µM
SNB-75 CNS
  TGI: > 10 µM
SR leukemia
  TGI: > 10 µM
SW-620 colon
  TGI: > 10 µM
T-47D breast
  TGI: > 10 µM
TK-10 renal
  TGI: > 10 µM
U251 CNS
  TGI: > 10 µM
UO-31 renal
  TGI: > 10 µM
